Experimental data taken from PubChem BioAssay (NCI).
Values joined by “and” are separate entries in the source; they are usually repeats but may differ in a detail not shown here. Identical values can stand only once.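 Tested at 5 concentrations; 48 h exposure; 96-well plates; endpoints linearly interpolated, else capped at highest concentration. Definition used: TGI = concentration required for complete inhibition of growth.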

Key:
Assay in all cases: DTP human tumour cell line panel, 48 h
DMS 273 small cell lung = test system: DMS 273 small cell lung
KM20L2 colon = test system: KM20L2 colon
XF 498 CNS = test system: XF 498 CNS
RXF-631 renal = test system: RXF-631 renal

SMILES | TGI (DMS 273 small cell lung) | TGI (KM20L2 colon) | TGI (XF 498 CNS) | TGI (RXF-631 renal)
CC(C)(C)NN=C1C(C)(C)C(=NNC(C)(C)C)C1(C)C | > 100 µM | > 100 µM | > 100 µM | –
COC1=CC(=O)[C@H]2[C@H](C)C(c3ccccc3)[C@@]2(C)C1=O (some centres undefined) | > 100 µM | – | > 100 µM | –
COc1cccc(NC(=S)Nn2c(C)nc3ccccc3c2=O)c1 | > 100 µM | – | – | –
CCCn1c(SCC)c2ccccc2c1-c1nc(F)nc(F)n1 | > 100 µM | > 100 µM | > 100 µM | > 100 µM
CCCCc1c2c(nc3c1CCCC3O)/C(=C/c1ccccc1)CCC2 (centres undefined) | > 100 µM | 75.1 µM | 28.2 µM | –
O=C1C(CN2CCCCC2)CCCC1CN1CCCCC1 (centres undefined) | > 100 µM | 17.8 µM and 22.8 µM | 33.4 µM and 39.8 µM | –
COC(OC)c1cccc2c1C(=O)CCC1(O)c3ccccc3C1C2 (centres undefined) | > 100 µM | – | > 100 µM | –
COc1ccc(C2C3C(=O)C=CC(=O)C3[C@@H]2C)cc1OC (some centres undefined) | > 100 µM | > 100 µM | > 100 µM | > 100 µM
CC(C)(C)c1nc2c(o1)C(=O)c1ccccc1C2=O | 12 µM | 48.2 µM | 7.15 µM | 14.9 µM
N#Cc1c(-c2ccco2)cc(-c2ccc(NCc3nc4ccccc4[nH]3)cc2)nc1N | 38.5 µM | – | – | –
CCCC/C=C/C1Cc2ccccc2CN1S(=O)(=O)c1ccc(C)cc1 (centres undefined) | 29.6 µM | 26.2 µM | 78.1 µM | 20.9 µM
NC(=O)N1N=C2c3ccccc3CC[C@@H]2C1c1ccccc1 (some centres undefined) | > 100 µM | > 100 µM | – | –
COC(=O)C1=C(C(=O)OC)C2(OC(C)=O)c3ccccc3-c3ccccc3C12 (centres undefined) | 9.61 µM | 12.8 µM | 26.1 µM | –
CC1=C2C(=O)[C@H]3[C@@H](CC=C4C[C@@H](O)CC[C@@]43C)[C@@H]2CC[C@]12O[C@@H]1C[C@H](C)CN[C@H]1[C@H]2C | 48.5 µM | 93.2 µM | – | 50 µM
CSC(C1c2ccccc2N(C)C2=NC(=O)N(C)C(=O)C21Cl)S(=O)(=O)c1ccc(C)cc1 (centres undefined) | 75 µM | > 100 µM | > 100 µM | > 100 µM
Nc1nc(SCCNC(=O)CCc2ccc(O)cc2)nc2c1ncn2C1OC(CO)C(O)C1O (centres undefined) | > 203 µM | > 203 µM | > 203 µM | –
Clc1ccc(SCCSCCCCCCCCCCSCCSc2ccc(Cl)cc2)cc1 | > 100 µM | > 100 µM | – | > 100 µM
